{
  "source": "patent US9980943B2",
  "about": "“Methods of treating muscular dystrophy” (BOARD OF REGENTS OF THE NEVADA SYSTEM OF HIGHER EDUCATION, …, priority 2013, dated 2018)",
  "type_in_all_cases": "cell-based, mouse",
  "key": {"[1]": {"tested_on": "β-galactosidase in CMV-LacZ C2C12 myotubes", "assay": "CMV-LacZ secondary screen in C2C12 myotubes (β-Gal stabilizing assay)", "conditions": "for fold induction at 5 µM / fold induction at 10 µM / fold induction at 20 µM / fold induction at 40 µM: Mus musculus, C2C12 CMV-LacZ myotubes, fold relative to DMSO; for CMV-LACZ in Myotubes (β-galactosidase activity relative to DMSO): CMV-LacZ C2C12 myotubes, 96-well format", "method_in_brief": "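CMV-LacZ C2C12 line (clonal, FDG-screened); myoblasts/myotubes dosed 0.5–40 μM (0.5, 1, 5, 10, 20, 40 μM); n=2 per point; β-gal stabilization read-out.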"}, "[2]": {"tested_on": "α7 integrin (LacZ reporter in α7+/LacZ myotubes)", "assay": "Myotube α7 integrin FDG assay (Burkin assay in myotubes, 96-well)", "conditions": "myotubes; for fold induction at 0.5 µM / fold induction at 1 µM / fold induction at 5 µM / fold induction at 10 µM / fold induction at 20 µM / fold induction at 40 µM: Mus musculus, Myotube"}, "[3]": {"tested_on": "α7 integrin (LacZ reporter in α7βgal+/− myoblasts)", "assay": "Myoblast α7+/LacZ integrin FDG assay (Burkin assay in myoblasts, 96-well)", "conditions": "α7+/LacZ myoblasts, 96-well; for fold induction at 0.5 µM / fold induction at 1 µM / fold induction at 5 µM / fold induction at 10 µM / fold induction at 20 µM / fold induction at 40 µM: Mus musculus, Myoblast, 48 h"}},
  "note": "Where two headings read alike, the source gives them in different places.",
  "data": [
    {"smiles": "O=c1nc(C2CCN(S(=O)(=O)c3ccc4c(c3)OCCO4)CC2)nc2n(Cc3c(F)cccc3Cl)[nH]nc1-2", "note": "[MLS001223482-01]", "values": [
      {"measurement": "fold induction at 5 µM", "setting": "[1]; 5 uM, read-out: CMV-LACZ in Myotubes, signal relative to DMSO", "value": 0.907},
      {"measurement": "fold induction at 10 µM", "setting": "[1]; 10 uM, read-out: CMV-LACZ in Myotubes, signal relative to DMSO", "value": 0.793},
      {"measurement": "fold induction at 20 µM", "setting": "[1]; 20 uM, read-out: CMV-LACZ in Myotubes, signal relative to DMSO", "value": 0.858},
      {"measurement": "fold induction at 40 µM", "setting": "[1]; 40 uM, read-out: CMV-LACZ in Myotubes, signal relative to DMSO", "value": 0.809},
      {"measurement": "fold induction at 0.5 µM", "setting": "[2]; 0.5 uM, read-out: Burkin Assay in Myotubes, α7 integrin LacZ reporter signal relative to DMSO", "value": 1.06},
      {"measurement": "fold induction at 1 µM", "setting": "[2]; 1 uM, read-out: Burkin Assay in Myotubes, α7 integrin LacZ reporter signal relative to DMSO", "value": 1.15},
      {"measurement": "fold induction at 5 µM", "setting": "[2]; 5 uM, read-out: Burkin Assay in Myotubes, α7 integrin LacZ reporter signal relative to DMSO", "value": 1.27},
      {"measurement": "fold induction at 10 µM", "setting": "[2]; 10 uM, read-out: Burkin Assay in Myotubes, α7 integrin LacZ reporter signal relative to DMSO", "value": 1.53},
      {"measurement": "fold induction at 20 µM", "setting": "[2]; 20 uM, read-out: Burkin Assay in Myotubes, α7 integrin LacZ reporter signal relative to DMSO", "value": 1.13},
      {"measurement": "fold induction at 40 µM", "setting": "[2]; 40 uM, read-out: Burkin Assay in Myotubes, α7 integrin LacZ reporter signal relative to DMSO", "value": 0.967},
      {"measurement": "fold induction at 0.5 µM", "setting": "[3]; 0.5 uM, read-out: Burkin Assay in Myoblasts, signal relative to DMSO", "value": 1.06},
      {"measurement": "fold induction at 1 µM", "setting": "[3]; 1 uM, read-out: Burkin Assay in Myoblasts, signal relative to DMSO", "value": 1.09},
      {"measurement": "fold induction at 5 µM", "setting": "[3]; 5 uM, read-out: Burkin Assay in Myoblasts, signal relative to DMSO", "value": 1.01},
      {"measurement": "fold induction at 10 µM", "setting": "[3]; 10 uM, read-out: Burkin Assay in Myoblasts, signal relative to DMSO", "value": 1.02},
      {"measurement": "fold induction at 20 µM", "setting": "[3]; 20 uM, read-out: Burkin Assay in Myoblasts, signal relative to DMSO", "value": 1.29},
      {"measurement": "fold induction at 40 µM", "setting": "[3]; 40 uM, read-out: Burkin Assay in Myoblasts, signal relative to DMSO", "value": 0.98}
    ]},
    {"smiles": "O=C(/C(=C(/[O-])c1ccccc1)[n+]1ccccc1)c1ccc([N+](=O)[O-])cc1", "note": "[MLS000705922-01]", "values": [
      {"measurement": "CMV-LACZ in Myotubes (β-galactosidase activity relative to DMSO)", "setting": "[1]; 5 uM", "value": 0.8776},
      {"measurement": "CMV-LACZ in Myotubes (β-galactosidase activity relative to DMSO)", "setting": "[1]; 10 uM", "value": 0.9306},
      {"measurement": "CMV-LACZ in Myotubes (β-galactosidase activity relative to DMSO)", "setting": "[1]; 20 uM", "value": 0.9302},
      {"measurement": "CMV-LACZ in Myotubes (β-galactosidase activity relative to DMSO)", "setting": "[1]; 40 uM", "value": 0.9947},
      {"measurement": "Burkin Assay in Myotubes (signal relative to DMSO)", "setting": "[2]; 0.5 uM", "value": 0.8984},
      {"measurement": "Burkin Assay in Myotubes (signal relative to DMSO)", "setting": "[2]; 1 uM", "value": 1.137},
      {"measurement": "Burkin Assay in Myotubes (signal relative to DMSO)", "setting": "[2]; 5 uM", "value": 0.8511},
      {"measurement": "Burkin Assay in Myotubes (signal relative to DMSO)", "setting": "[2]; 10 uM", "value": 0.9544},
      {"measurement": "Burkin Assay in Myotubes (signal relative to DMSO)", "setting": "[2]; 20 uM", "value": 0.9072},
      {"measurement": "Burkin Assay in Myotubes (signal relative to DMSO)", "setting": "[2]; 40 uM", "value": 1.039},
      {"measurement": "Burkin Assay in Myoblasts, value relative to DMSO", "setting": "[3]; 0.5 uM", "value": 0.9627},
      {"measurement": "Burkin Assay in Myoblasts, value relative to DMSO", "setting": "[3]; 1 uM", "value": 1.02},
      {"measurement": "Burkin Assay in Myoblasts, value relative to DMSO", "setting": "[3]; 5 uM", "value": 0.7282},
      {"measurement": "Burkin Assay in Myoblasts, value relative to DMSO", "setting": "[3]; 10 uM", "value": 0.7283},
      {"measurement": "Burkin Assay in Myoblasts, value relative to DMSO", "setting": "[3]; 20 uM", "value": 0.8892},
      {"measurement": "Burkin Assay in Myoblasts, value relative to DMSO", "setting": "[3]; 40 uM", "value": 0.8783}
    ]},
    {"smiles": "Cc1ccc(NC(=O)C2CCCCC2C(=O)O)cc1C", "note": "(stereo not drawn) [MLS000850824-01]", "values": [
      {"measurement": "fold induction at 5 µM", "setting": "[1]; C2C12, read-out: CMV-LACZ in Myotubes, signal relative to DMSO, 5 uM", "value": 0.885},
      {"measurement": "fold induction at 10 µM", "setting": "[1]; C2C12, read-out: CMV-LACZ in Myotubes, signal relative to DMSO, 10 uM", "value": 0.992},
      {"measurement": "fold induction at 20 µM", "setting": "[1]; C2C12, read-out: CMV-LACZ in Myotubes, signal relative to DMSO, 20 uM", "value": 0.995},
      {"measurement": "fold induction at 40 µM", "setting": "[1]; C2C12, read-out: CMV-LACZ in Myotubes, signal relative to DMSO, 40 uM", "value": 0.946},
      {"measurement": "fold induction at 0.5 µM", "setting": "[2]; 0.5 uM, read-out: Burkin Assay in Myotubes (signal relative to DMSO)", "value": 0.908},
      {"measurement": "fold induction at 1 µM", "setting": "[2]; 1 uM, read-out: Burkin Assay in Myotubes (signal relative to DMSO)", "value": 1.09},
      {"measurement": "fold induction at 5 µM", "setting": "[2]; 5 uM, read-out: Burkin Assay in Myotubes (signal relative to DMSO)", "value": 0.99},
      {"measurement": "fold induction at 10 µM", "setting": "[2]; 10 uM, read-out: Burkin Assay in Myotubes (signal relative to DMSO)", "value": 1.07},
      {"measurement": "fold induction at 20 µM", "setting": "[2]; 20 uM, read-out: Burkin Assay in Myotubes (signal relative to DMSO)", "value": 1.14},
      {"measurement": "fold induction at 40 µM", "setting": "[2]; 40 uM, read-out: Burkin Assay in Myotubes (signal relative to DMSO)", "value": 1.21},
      {"measurement": "fold induction at 0.5 µM", "setting": "[3]; 0.5 uM, read-out: Burkin Assay in Myoblasts, value relative to DMSO", "value": 1.17},
      {"measurement": "fold induction at 1 µM", "setting": "[3]; 1 uM, read-out: Burkin Assay in Myoblasts, value relative to DMSO", "value": 1.27},
      {"measurement": "fold induction at 5 µM", "setting": "[3]; 5 uM, read-out: Burkin Assay in Myoblasts, value relative to DMSO", "value": 1.08},
      {"measurement": "fold induction at 10 µM", "setting": "[3]; 10 uM, read-out: Burkin Assay in Myoblasts, value relative to DMSO", "value": 1.08},
      {"measurement": "fold induction at 20 µM", "setting": "[3]; 20 uM, read-out: Burkin Assay in Myoblasts, value relative to DMSO", "value": 0.986},
      {"measurement": "fold induction at 40 µM", "setting": "[3]; 40 uM, read-out: Burkin Assay in Myoblasts, value relative to DMSO", "value": 1.06}
    ]}
  ]
}
